The text below walks through data of ChEMBL document CHEMBL3044830, “Synthesis, characterization, antibacterial, antifungal, and immunomodulating activities of gatifloxacin derivatives” (Med Chem Res, 2010).

Bounds are passed on as bounds.

For one assay, the system named is Pseudomonas aeruginosa. The assay is described as follows: Antibacterial activity against Pseudomonas aeruginosa assessed as concentration required to obtain a zone of inhibition of 5 mm after 18 to 24 hr by disk diffusion method. In kind it is functional. A general note: A growth-free zone around the sample is the usual read-out of agar diffusion tests.
Assay [1] can be described thus: Antibacterial activity against Hofmanni bacterium assessed as concentration required to obtain a zone of inhibition of 20 mm after 18 to 24 hr by disc diffusion method.
The subject of assay [2] is Proteus mirabilis. Put plainly: Antibacterial activity against Proteus mirabilis assessed as concentration required to obtain a zone of inhibition of 10 mm after 18 to 24 hr by disc diffusion method. In kind it is functional.
For assay [3], the system named is Staphylococcus aureus. The assay is described as follows: Antibacterial activity against methicillin-resistant Staphylococcus aureus assessed as zone of inhibition at 5 to 40 ug/ml after 18 to 24 hr by disk diffusion method relative to gatifloxacin. In kind it is functional.
In the next assay the test system is Klebsiella pneumoniae. Put plainly: Antibacterial activity against Klebsiella pneumoniae assessed as zone of inhibition at 5 to 40 ug/ml after 18 to 24 hr by disk diffusion method relative to gatifloxacin. The format is functional.
The nature of assay [4]: Antibacterial activity against Hofmanni bacterium assessed as concentration required to obtain a zone of inhibition of 10 mm after 18 to 24 hr by disc diffusion method.
In assay [5] the test system is Trichophyton rubrum. The assay is described as follows: Antifungal activity against Trichophyton rubrum assessed as concentration required to obtain a zone of inhibition of 40 mm after 7 days by disk diffusion method. In kind it is functional.
Assay [6] deals with Escherichia coli. Put plainly: Antibacterial activity against Escherichia coli assessed as zone of inhibition at 5 to 40 ug/ml after 18 to 24 hr by disk diffusion method relative to gatifloxacin. The format is functional.
The subject of assay [7] is Escherichia coli. Put plainly: Antibacterial activity against Escherichia coli assessed as concentration required to obtain a zone of inhibition of 10 mm after 18 to 24 hr by disk diffusion method. In kind it is functional.
The subject of assay [8] is Blood. Put plainly: Antioxidant activity in Homo sapiens (human) whole blood assessed as inhibition of ROS production after 30 min by luminol-enhanced chemiluminescence assay. In kind it is functional, tissue-based. As to conditions: 0.5 h.
The test system of another assay is Shigella sp. Put plainly: Antibacterial activity against Shigella typhi assessed as concentration required to obtain a zone of inhibition of 10 mm after 18 to 24 hr by disc diffusion method. The format is functional.
Assay [9] has as its system Proteus mirabilis. Put plainly: Antibacterial activity against Proteus mirabilis assessed as zone of inhibition at 5 to 40 ug/ml after 18 to 24 hr by disc diffusion method relative to gatifloxacin. The format is functional.
In assay [10] the test system is Blood. The assay is described as follows: Antioxidant activity in Homo sapiens (human) whole blood assessed as inhibition of ROS production at 12.5 ug/ml after 30 min by luminol-enhanced chemiluminescence assay. The format is functional. As to conditions: 0.5 h.
The subject of a further assay is T-cell. The assay is described as follows: Anti-inflammatory activity in Homo sapiens (human) T lymphocytes assessed as inhibition of PHA-induced [3H] thymidine uptake at 12.5 ug/ml incubated for 72 hr prior to [3H]thymidine addition measured after 18 hr by liquid scintillation method. The format is functional.
The next assay concerns Candida albicans. Put plainly: Antifungal activity against Candida albicans assessed as zone of inhibition at 5 to 40 ug/ml after 7 days by disk diffusion method relative to gatifloxacin. In kind it is functional.
The subject of assay [11] is Trichophyton rubrum. The assay is described as follows: Antifungal activity against Trichophyton rubrum assessed as concentration required to obtain a zone of inhibition of 20 mm after 7 days by disk diffusion method. In kind it is functional.
In assay [12] the test system is Staphylococcus aureus. The assay is described as follows: Antibacterial activity against methicillin-resistant Staphylococcus aureus assessed as concentration required to obtain a zone of inhibition of 5 mm after 18 to 24 hr by disk diffusion method. The format is functional.

On to `COc1c(N2CCN(C(=O)c3ccccc3)C(C)C2)c(F)cc2c(=O)c(C(=O)O)cn(C3CC3)c12.O` (centres undefined), for which the Activity in the assay with Pseudomonas aeruginosa was determined as 10 µg/mL; in [1] it was 14 µg/mL; with Proteus mirabilis [2] it was 11 µg/mL; in assay [4] it was 12 µg/mL; in the assay with Trichophyton rubrum [5] it was 27 µg/mL; in the assay on Escherichia coli [7], 16 µg/mL. In addition, the results for the Activity with Shigella sp., in the assay on Trichophyton rubrum [11] and in the assay on Staphylococcus aureus [12] were 9 µg/mL, 21 µg/mL and 9 µg/mL, respectively. Besides, the “inhibition zone (IZ)” value with Staphylococcus aureus [3] is recorded as 87.4%; with Klebsiella pneumoniae, 99.8%; with Escherichia coli [6] it was 117.3%; with Proteus mirabilis [9] it was 78.8%; in the assay on Candida albicans it was 141%. Besides, in the assay on Blood [8], the 50% inhibitory concentration (IC50) is more than 100 µg/mL. The inhibition at 12.5 µg/mL in the assay with Blood [10] was -5.1%; in the assay on T-cell, -41.5%.

`CCCCCCCC(=O)N1CCN(c2c(F)cc3c(=O)c(C(=O)O)cn(C4CC4)c3c2OC)CC1C.O` (centres undefined): the Activity in the assay on Pseudomonas aeruginosa was found to be 8 µg/mL; in assay [1] it was 14 µg/mL; in the assay with Proteus mirabilis [2], 12 µg/mL; in assay [4] it was 11 µg/mL; in the assay on Trichophyton rubrum [5], 17 µg/mL; in the assay with Escherichia coli [7], 10 µg/mL. Also, the Activity is 16 µg/mL in the assay with Trichophyton rubrum [11] and 7 µg/mL in the assay on Staphylococcus aureus [12]. Further, the “inhibition zone (IZ)” value is given as 76.7% with Staphylococcus aureus [3]; 113% in the assay with Klebsiella pneumoniae; 90.78% with Escherichia coli [6]; 92% in the assay on Proteus mirabilis [9]; 218% in the assay on Candida albicans. The 50% inhibitory concentration (IC50) with Blood [8] is less than 12.5 µg/mL. For the same compound, the inhibition at 12.5 µg/mL with Blood [10] is 74.1%; in the assay on T-cell it was -41.5%.

With `COc1c(N2CCN(C(C)=O)C(C)C2)c(F)cc2c(=O)c(C(=O)O)cn(C3CC3)c12.O` (centres undefined), the Activity is 11 µg/mL in the assay on Pseudomonas aeruginosa; 16 µg/mL in assay [1]; 10 µg/mL in the assay on Proteus mirabilis [2]; 12 µg/mL in [4]; 34 µg/mL in the assay with Trichophyton rubrum [5]; 17 µg/mL with Escherichia coli [7]. The Activity with Trichophyton rubrum [11] was 28 µg/mL; in the assay on Staphylococcus aureus [12], 14 µg/mL. Moreover, the “inhibition zone (IZ)” value in the assay with Staphylococcus aureus [3] worked out at 124%; in the assay on Klebsiella pneumoniae, 158%; in the assay on Escherichia coli [6] it was 134.8%; with Proteus mirabilis [9], 76.6%; in the assay on Candida albicans it was 206%. Besides, the half-inhibitory concentration (IC50) in the assay with Blood [8] was more than 100 µg/mL. Also, the figures for the inhibition at 12.5 µg/mL in the assay on Blood [10] and in the assay on T-cell were -14.3% and -35.7%, respectively.

As usually defined, the IC50 is the concentration at which inhibition is half-maximal. As a reminder, the inhibition is the change of the read-out against control, counted positive when it falls.
